Experimental findings from ChEMBL document CHEMBL4052645, “Discovery of potent and efficacious pyrrolopyridazines as dual JAK1/3 inhibitors” (Bioorg Med Chem Lett, 2017) are described below.

Active and inactive are the calls of the source. The calls are words filed in the database; no cut-off is given here.

Series [1] in a line: Selectivity ratio of IC50 for JAK2 dependent EPO-induced STAT5A phosphorylation in human TF1 cells to IC50 for JAK1/JAK3 dependent IL2-induced STAT3 phosphorylation in human PBMC derived T-cells.
For series [2], the target named is Voltage-gated inwardly rectifying potassium channel KCNH2 (Homo sapiens, UniProt Q12809). As to the kind of experiment: Inhibition of human ERG by flux-based assay.
Series [3] is described as follows: Metabolic stability in mouse liver microsomes assessed as compound remaining after 10 mins. The conditions noted are these: read-out: Stability. It counts as ADME, microsome. Background: Liver microsomes are a subcellular fraction often used to study metabolism.
Series [4] can be described thus: Protein binding in rat plasma. Type of series: ADME, cell-free. To be noted: read-out: PPB (converted).
Series [5] can be described thus: Cmax in BALB/c mouse at 10 mg/kg, po. It counts as ADME, organism-based. Details: dose 10 mg/kg, route oral. To be noted: in vivo.
Series [6] is described as follows: Volume of distribution at steady state in BALB/c mouse at 2 mg/kg, iv. It counts as ADME, organism-based. To be noted: in vivo, read-out: Vdss.
Series [7] is described as follows: AUC in Sprague-Dawley rat at 10 mg/kg, po. It counts as ADME, organism-based. The conditions noted are these: in vivo.
A short description of series [8]: Oral bioavailability in Sprague-Dawley rat at 10 mg/kg. Type of series: ADME, organism-based. The conditions noted are these: in vivo.
Series [9] can be described thus: Clearance in Sprague-Dawley rat at 2 mg/kg, iv. It counts as ADME, organism-based. To be noted: in vivo.
The test system of series [10] is Oryctolagus cuniculus. Briefly: Cardiotoxicity in rabbit assessed as decrease in mean arterial blood pressure at >3 mg/kg. It counts as toxicity, organism-based. To be noted: in vivo.
In series [11] the test system is Oryctolagus cuniculus. As to the kind of experiment: Cardiotoxicity in rabbit assessed as increase in heart rate at >3 mg/kg. It counts as toxicity, organism-based. To be noted: in vivo.
Series [12] concerns the target Rho-associated protein kinase 1 (Homo sapiens, UniProt Q13464). Briefly: Inhibition of Rho-associated protein kinase 1 (unknown origin).
Series [13] deals with Mitogen-activated protein kinase kinase kinase 7 (Homo sapiens) (UniProt O43318). As to the kind of experiment: Inhibition of wild-type human partial length TAK1 (M1 to Q303 residues) expressed in mammalian expression system assessed as residual activity at 50 nM by Kinomescan method relative to control.
Sequence of Mitogen-activated protein kinase kinase kinase 7 (Homo sapiens) (O43318 whole entry, the tested form may be a part): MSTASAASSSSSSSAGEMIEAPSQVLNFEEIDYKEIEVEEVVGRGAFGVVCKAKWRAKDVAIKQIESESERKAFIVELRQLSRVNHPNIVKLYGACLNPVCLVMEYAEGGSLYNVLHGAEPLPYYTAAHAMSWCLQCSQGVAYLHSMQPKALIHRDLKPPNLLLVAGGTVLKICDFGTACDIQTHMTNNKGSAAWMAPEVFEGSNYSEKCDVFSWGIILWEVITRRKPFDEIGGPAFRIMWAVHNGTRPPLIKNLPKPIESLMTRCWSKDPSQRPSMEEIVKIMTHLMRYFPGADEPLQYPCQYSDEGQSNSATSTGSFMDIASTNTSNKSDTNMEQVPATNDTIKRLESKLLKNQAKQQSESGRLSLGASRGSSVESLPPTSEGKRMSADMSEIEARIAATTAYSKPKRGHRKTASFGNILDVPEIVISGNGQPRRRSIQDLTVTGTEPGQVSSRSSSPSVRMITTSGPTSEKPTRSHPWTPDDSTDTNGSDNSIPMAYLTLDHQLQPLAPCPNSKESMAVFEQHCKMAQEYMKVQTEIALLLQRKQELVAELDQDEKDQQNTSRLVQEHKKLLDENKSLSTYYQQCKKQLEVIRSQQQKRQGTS
Series [14] addresses Serine/threonine-protein kinase SIK3 (Homo sapiens) (UniProt Q9Y2K2). Briefly: Inhibition of wild-type human partial length QSK (A90 to L395 residues) expressed in mammalian expression system assessed as residual activity at 50 nM by Kinomescan method relative to control.
Series [15] addresses Wee1-like protein kinase 2 (Homo sapiens) (UniProt P0C1S8). As to the kind of experiment: Inhibition of wild-type human partial length WEE1B (M204 to K492 residues) expressed in bacterial expression system assessed as residual activity at 50 nM by Kinomescan method relative to control.
The target of series [16] is Ephrin type-B receptor 2 (Homo sapiens) (UniProt P29323). As to the kind of experiment: Inhibition of wild-type human partial length EPHB2 (I597 to L902 residues) expressed in bacterial expression system assessed as residual activity at 50 nM by Kinomescan method relative to control.
Series [17] has as its target Tyrosine-protein kinase Fgr (Homo sapiens) (UniProt P09769). As to the kind of experiment: Inhibition of wild-type human partial length FGR (L233 to T529 residues) expressed in bacterial expression system assessed as residual activity at 50 nM by Kinomescan method relative to control.
Series [18] concerns the target Myosin light chain kinase family member 4 (Homo sapiens) (UniProt Q86YV6). As to the kind of experiment: Inhibition of wild-type human partial length SGK085 (V79 to S380 residues) expressed in bacterial expression system assessed as residual activity at 50 nM by Kinomescan method relative to control.
The target of series [19] is Calcium/calmodulin-dependent protein kinase type 1 (Homo sapiens) (UniProt Q14012). As to the kind of experiment: Inhibition of wild-type human full length CAMK1A (M1 to L370 residues) expressed in bacterial expression system assessed as residual activity at 50 nM by Kinomescan method relative to control.
Series [20] has as its target Dual specificity tyrosine-phosphorylation-regulated kinase 1B (Homo sapiens) (UniProt Q9Y463). As to the kind of experiment: Inhibition of wild-type human full length DYRK1B (M1 to S629 residues) expressed in bacterial expression system assessed as residual activity at 50 nM by Kinomescan method relative to control.
In series [21] the target is Tyrosine-protein kinase JAK1 (Homo sapiens, UniProt P23458). Briefly: Inhibition of wild-type human partial length JAK1 JH2 pseudokinase domain (R537 to D855 residues) expressed in mammalian expression system assessed as residual activity at 50 nM by Kinomescan method relative to control.
Series [22] deals with Tyrosine-protein kinase Lyn (Homo sapiens) (UniProt P07948). Briefly: Inhibition of wild-type human partial length LYN (C219 to Q511 residues) expressed in bacterial expression system assessed as residual activity at 50 nM by Kinomescan method relative to control.
Series [23] concerns the target Casein kinase I isoform epsilon (Homo sapiens) (UniProt P49674). As to the kind of experiment: Inhibition of wild-type human full length CK1E (M1 to K416 residues) expressed in bacterial expression system assessed as residual activity at 50 nM by Kinomescan method relative to control.
Series [24] concerns the target Serine/threonine-protein kinase 38 (Homo sapiens) (UniProt Q15208). Briefly: Inhibition of wild-type human partial length NDR1 (N33 to E449 residues) expressed in mammalian expression system assessed as residual activity at 50 nM by Kinomescan method relative to control.
The target of series [25] is Homeodomain-interacting protein kinase 2 (Homo sapiens) (UniProt Q9H2X6). Briefly: Inhibition of wild-type human partial length HIPK2 (M153 to S564 residues) expressed in mammalian expression system assessed as residual activity at 50 nM by Kinomescan method relative to control.
Sequence of Homeodomain-interacting protein kinase 2 (Homo sapiens) (Q9H2X6 whole entry, looked up, the tested form may be a part): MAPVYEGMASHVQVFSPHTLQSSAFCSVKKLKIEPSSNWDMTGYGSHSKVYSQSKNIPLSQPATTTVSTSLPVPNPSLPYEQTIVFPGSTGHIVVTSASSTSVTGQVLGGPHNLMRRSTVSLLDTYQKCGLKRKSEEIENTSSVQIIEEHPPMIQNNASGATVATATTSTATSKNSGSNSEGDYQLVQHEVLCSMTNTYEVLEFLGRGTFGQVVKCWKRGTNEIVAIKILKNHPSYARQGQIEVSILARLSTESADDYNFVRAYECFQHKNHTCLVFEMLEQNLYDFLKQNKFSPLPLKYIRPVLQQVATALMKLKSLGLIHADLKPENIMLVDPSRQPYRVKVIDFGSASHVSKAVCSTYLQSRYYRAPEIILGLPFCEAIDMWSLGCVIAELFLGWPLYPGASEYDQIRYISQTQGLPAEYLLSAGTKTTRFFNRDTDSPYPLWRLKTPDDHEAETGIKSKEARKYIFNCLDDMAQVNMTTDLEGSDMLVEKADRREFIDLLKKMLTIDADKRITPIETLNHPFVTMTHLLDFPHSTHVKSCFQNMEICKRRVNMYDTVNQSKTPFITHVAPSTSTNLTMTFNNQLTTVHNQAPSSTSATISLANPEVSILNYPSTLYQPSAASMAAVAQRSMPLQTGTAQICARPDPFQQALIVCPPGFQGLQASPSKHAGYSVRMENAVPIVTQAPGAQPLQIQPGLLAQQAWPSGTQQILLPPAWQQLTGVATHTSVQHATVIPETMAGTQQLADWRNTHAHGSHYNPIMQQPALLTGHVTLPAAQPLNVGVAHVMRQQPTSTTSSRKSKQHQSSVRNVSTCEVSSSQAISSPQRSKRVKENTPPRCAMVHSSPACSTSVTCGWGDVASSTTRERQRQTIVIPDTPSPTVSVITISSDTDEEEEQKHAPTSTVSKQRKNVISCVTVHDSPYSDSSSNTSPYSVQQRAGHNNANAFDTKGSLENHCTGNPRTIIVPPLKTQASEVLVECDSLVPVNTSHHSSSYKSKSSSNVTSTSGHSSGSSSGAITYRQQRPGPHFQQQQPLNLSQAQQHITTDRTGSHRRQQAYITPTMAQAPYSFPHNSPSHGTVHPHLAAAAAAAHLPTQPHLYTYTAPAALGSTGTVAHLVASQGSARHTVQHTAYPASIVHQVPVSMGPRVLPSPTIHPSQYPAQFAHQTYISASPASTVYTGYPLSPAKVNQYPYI
Series [26] has as its target TGF-beta receptor type-2 (Homo sapiens) (UniProt P37173). As to the kind of experiment: Inhibition of wild-type human partial length TGFBR2 (I218 to K567 residues) expressed in bacterial expression system assessed as residual activity at 50 nM by Kinomescan method relative to control.
Series [27] deals with Casein kinase I isoform alpha-like. As to the kind of experiment: Inhibition of CK1A2 (unknown origin) assessed as residual activity at 50 nM by Kinomescan method relative to control. To be noted: Homo sapiens.
Series [28] deals with Mitogen-activated protein kinase kinase kinase 12. Briefly: Inhibition of wild-type human full length DLK (M1 to P859 residues) expressed in mammalian expression system assessed as residual activity at 50 nM by Kinomescan method relative to control.
The test system of series [29] is Ribosomal protein S6 kinase alpha-2. Briefly: Inhibition of wild-type human partial length C-terminal RSK3 kinase domain 2 (V403 to K700 residues) expressed in bacterial expression system assessed as residual activity at 50 nM by Kinomescan method relative to control.
The nature of series [30]: Oral bioavailability in mouse. Type of series: ADME, organism-based. The conditions noted are these: in vivo.
The species named for series [31] is Mus musculus. As to the kind of experiment: Clearance of compound in mouse relative to hepatic blood flow. Type of series: ADME. The conditions noted are these: in vivo.
Series [32] in a line: Clearance of compound in mouse. Type of series: ADME, organism-based. The conditions noted are these: in vivo.
Series [33] in a line: Drug concentration in mouse after 24 hrs. It counts as ADME. The conditions noted are these: in vivo, read-out: Drug uptake.
Series [34] deals with Mus musculus. As to the kind of experiment: Antiarthritic activity in collagen-induced arthritis mouse model assessed as reduction in inflammation at 2 mg/kg, po qd measured up to 41 days. Type of series: functional, organism-based.
Series [35] concerns Mus musculus. As to the kind of experiment: Antiarthritic activity in collagen-induced mouse model assessed as […] at 2 mg/kg, po qd up to 41 days. Type of series: functional, organism-based.

By IC50 is commonly meant the concentration that gives 50% inhibition. What is called Cmax is the highest concentration seen after dosing. For orientation: AUC means concentration integrated over time. The bioavailability is the share of a dose that reaches the circulation, judged against a reference dose that is usually intravenous. Read a high bioavailability as much systemic uptake. A word on the clearance: it is the rate of elimination divided by the concentration. High values mean a high capacity for elimination, low ones a low capacity for elimination.

Sequence of TGF-beta receptor type-2 (Homo sapiens) (P37173 whole entry, the tested form may be a part, canonical isoform): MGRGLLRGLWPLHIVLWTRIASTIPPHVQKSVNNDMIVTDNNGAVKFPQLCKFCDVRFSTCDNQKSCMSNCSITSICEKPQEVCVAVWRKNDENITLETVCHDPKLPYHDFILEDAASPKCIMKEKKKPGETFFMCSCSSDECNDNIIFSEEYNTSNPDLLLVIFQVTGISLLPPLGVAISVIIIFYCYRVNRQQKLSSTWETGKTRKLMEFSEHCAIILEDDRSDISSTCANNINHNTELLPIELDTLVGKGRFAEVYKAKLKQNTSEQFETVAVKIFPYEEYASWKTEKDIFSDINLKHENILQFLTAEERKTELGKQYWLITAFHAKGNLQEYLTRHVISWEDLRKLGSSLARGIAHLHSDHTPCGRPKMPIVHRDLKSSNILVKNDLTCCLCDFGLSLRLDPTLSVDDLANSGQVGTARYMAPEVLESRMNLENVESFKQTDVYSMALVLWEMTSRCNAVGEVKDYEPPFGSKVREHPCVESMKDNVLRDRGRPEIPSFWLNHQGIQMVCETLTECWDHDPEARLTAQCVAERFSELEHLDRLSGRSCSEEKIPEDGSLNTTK
Sequence of Serine/threonine-protein kinase 38 (Homo sapiens) (Q15208 2-465 limits assumed): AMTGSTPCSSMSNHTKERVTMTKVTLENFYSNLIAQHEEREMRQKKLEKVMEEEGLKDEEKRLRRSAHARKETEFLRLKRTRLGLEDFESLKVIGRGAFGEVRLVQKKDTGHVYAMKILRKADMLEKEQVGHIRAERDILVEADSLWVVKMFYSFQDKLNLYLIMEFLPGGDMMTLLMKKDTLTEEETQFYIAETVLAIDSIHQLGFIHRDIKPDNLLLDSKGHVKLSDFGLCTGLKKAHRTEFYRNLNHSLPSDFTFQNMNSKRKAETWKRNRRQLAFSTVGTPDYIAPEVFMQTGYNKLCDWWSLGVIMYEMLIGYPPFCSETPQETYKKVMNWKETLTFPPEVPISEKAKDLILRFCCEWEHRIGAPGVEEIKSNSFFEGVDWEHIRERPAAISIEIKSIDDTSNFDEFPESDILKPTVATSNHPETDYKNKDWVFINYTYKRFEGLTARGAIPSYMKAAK
Sequence of Serine/threonine-protein kinase SIK3 (Homo sapiens) (Q9Y2K2 whole entry, looked up, the tested form may be a part): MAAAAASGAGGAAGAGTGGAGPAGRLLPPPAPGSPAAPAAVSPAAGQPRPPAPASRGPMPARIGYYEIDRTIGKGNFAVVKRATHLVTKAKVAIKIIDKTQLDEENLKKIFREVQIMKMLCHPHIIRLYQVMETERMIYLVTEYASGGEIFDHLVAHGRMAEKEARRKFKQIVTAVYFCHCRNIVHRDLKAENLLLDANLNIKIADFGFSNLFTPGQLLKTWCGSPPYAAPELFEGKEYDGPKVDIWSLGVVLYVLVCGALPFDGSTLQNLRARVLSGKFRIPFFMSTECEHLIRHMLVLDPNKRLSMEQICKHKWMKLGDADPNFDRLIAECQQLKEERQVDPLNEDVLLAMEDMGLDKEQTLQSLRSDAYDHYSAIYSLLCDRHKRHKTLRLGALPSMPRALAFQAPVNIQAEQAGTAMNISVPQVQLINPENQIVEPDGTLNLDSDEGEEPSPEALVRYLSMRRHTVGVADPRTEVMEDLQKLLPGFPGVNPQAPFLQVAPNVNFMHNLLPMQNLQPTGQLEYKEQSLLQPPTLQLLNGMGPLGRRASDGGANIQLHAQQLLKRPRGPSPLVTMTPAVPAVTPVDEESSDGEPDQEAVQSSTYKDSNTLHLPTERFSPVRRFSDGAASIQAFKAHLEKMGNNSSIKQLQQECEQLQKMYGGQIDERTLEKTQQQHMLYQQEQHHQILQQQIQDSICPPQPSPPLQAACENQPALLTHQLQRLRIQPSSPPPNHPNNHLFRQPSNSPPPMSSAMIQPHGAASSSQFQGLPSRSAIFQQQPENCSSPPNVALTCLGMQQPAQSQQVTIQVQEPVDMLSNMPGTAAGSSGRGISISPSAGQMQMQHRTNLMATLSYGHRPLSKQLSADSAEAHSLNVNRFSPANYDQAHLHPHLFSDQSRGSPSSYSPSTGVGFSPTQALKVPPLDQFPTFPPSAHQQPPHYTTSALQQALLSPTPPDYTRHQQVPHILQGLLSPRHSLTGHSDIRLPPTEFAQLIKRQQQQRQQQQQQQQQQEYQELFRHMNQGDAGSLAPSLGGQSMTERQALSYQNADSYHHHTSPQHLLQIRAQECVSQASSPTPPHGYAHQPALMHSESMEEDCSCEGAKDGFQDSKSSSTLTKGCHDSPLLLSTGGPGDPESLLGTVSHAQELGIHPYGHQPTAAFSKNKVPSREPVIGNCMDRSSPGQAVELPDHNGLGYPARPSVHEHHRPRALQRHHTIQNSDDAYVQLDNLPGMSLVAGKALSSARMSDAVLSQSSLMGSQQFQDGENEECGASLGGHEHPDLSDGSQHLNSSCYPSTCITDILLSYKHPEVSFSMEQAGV
Sequence of Casein kinase I isoform epsilon (Homo sapiens) (P49674 whole entry, looked up, the tested form may be a part, canonical isoform): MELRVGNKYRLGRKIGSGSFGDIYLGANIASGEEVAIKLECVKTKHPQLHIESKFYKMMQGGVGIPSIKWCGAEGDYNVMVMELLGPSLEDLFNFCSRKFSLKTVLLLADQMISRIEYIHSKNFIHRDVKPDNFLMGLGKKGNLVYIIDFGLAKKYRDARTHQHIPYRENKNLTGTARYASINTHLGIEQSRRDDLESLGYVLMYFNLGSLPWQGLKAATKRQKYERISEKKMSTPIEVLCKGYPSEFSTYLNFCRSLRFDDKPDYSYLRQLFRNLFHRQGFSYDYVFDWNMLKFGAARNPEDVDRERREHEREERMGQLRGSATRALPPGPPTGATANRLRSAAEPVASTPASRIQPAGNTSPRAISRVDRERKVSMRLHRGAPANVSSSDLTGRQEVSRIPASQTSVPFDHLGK
Sequence of Myosin light chain kinase family member 4 (Homo sapiens) (Q86YV6 whole entry, the tested form may be a part): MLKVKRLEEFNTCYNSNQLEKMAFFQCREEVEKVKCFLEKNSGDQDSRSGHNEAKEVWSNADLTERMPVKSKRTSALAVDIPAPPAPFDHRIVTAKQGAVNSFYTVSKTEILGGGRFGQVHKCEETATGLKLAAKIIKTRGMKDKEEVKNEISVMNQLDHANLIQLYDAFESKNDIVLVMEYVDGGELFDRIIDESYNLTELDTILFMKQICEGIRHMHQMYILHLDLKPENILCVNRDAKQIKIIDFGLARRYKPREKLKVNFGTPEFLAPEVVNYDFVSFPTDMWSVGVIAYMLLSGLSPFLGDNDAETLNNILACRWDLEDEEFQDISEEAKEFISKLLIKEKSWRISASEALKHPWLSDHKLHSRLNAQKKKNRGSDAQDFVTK

For `COc1ccc(-c2cc3c(N[C@@H]4CC[C@](C)(N)C4(C)C)c(C(N)=O)cnn3c2)cn1`, the “Ratio IC50” value in series [1] turned out to be 130. Also, the half-inhibitory concentration (IC50) in [2] is > 80000 nM; in series [12] it was 95 nM. Also, the remaining at 10 min in series [3] was 95%. Moreover, in series [4], the fraction unbound is 0.12. For the same compound, the peak concentration (Cmax) in series [5] worked out at 1100 nM. The Vd in series [6] was determined as 8.2 L/kg. Besides, the area under the curve (AUC) in series [7] amounted to 12.9 µM·h. This compound yielded a bioavailability in series [8] of 44%. Also, the clearance in series [9] was 14.1 mL/min/kg. The Activity entry was “Toxic” with Oryctolagus cuniculus [10]; “Toxic” in the series on Oryctolagus cuniculus [11]; 73% in [13]; 86% in series [14]; 98% in [15]; 100% in series [16]. In addition, the Activity in series [17] worked out at 99%; in [18], 94%; in series [19], 100%; in series [20], 100%; in series [21], 78%; in [22], 100%. Besides, the Activity in series [23] was found to be 87%; in [24], 99%; in series [25] it was 100%; in series [26], 100%; in series [27], 97%; in series [28], 81%. Also, in series [29], the Activity is 93%.

As to `CC1(C)[C@H](Nc2c(C(N)=O)cnn3cc(-c4ccccc4)cc23)CC[C@]1(C)N`, the bioavailability in series [30] was found to be 67%. This compound also showed a CL in the series listed under Mus musculus [31] of 32%. In addition, the clearance in [32] was found to be 29 mL/min/kg. For the same compound, the concentration at 24 h in series [33] is 230 nM. In addition, the result in the series with Mus musculus [34] and in the series on Mus musculus [35] was inactive. The Activity in series [13] worked out at 48%; in [14], 68%; in [15], 73%; in series [23] it was 92%; in series [24], 92%; in series [25] it was 97%. Further, the Activity in [26] worked out at 100%.
